Results on 1 compound are retold here after US11472791B2 (Incyte Corporation, priority 2019, dated 2022).

Experiment [1] has as its system Rb phosphorylation at S780 in CCNE1-non-amplified cell lines (COV504 and OV56). As to the kind of experiment: Western blot of Rb phosphorylation at S780, CCNE1-non-amplified cell lines. It is filed as cell-based, human. The following applies: COV504 and OV56, various doses, 1 or 15 hours. Here is the method: (§1) The effect of CDK4/6-inhibition on Rb phosphorylation at S780 in CCNE1-amplified versus CCNE1-non-amplified cell lines was evaluated. […] One or 15 hours after treatment, the cells were harvested and total protein was extracted and analyzed by western blot (FIG. 8).
(§2) Whole cell extracts were prepared using RIPA buffer (Thermo Scientific, 89900) with a Halt Protease and Phosphatase Inhibitor Cocktail (Thermo Scientific, 78440). Protein concentration was quantified with a BCA Protein Assay Kit (Thermo Scientific, 23225) and 40 μg of protein lysates were loaded for SDS-PAGE using precast gradient gels (Bio-Rad, Hercules, No. 456-1094). Samples were diluted in 5× Laemmli buffer (300 mM Tris-HCl pH 6.8, 10% SDS (w/v), 5% 2-mercaptoethanol, 25% glycerol (v/v), 0.1% bromophenol blue w/v) and boiled for 5 minutes. 35 μg of proteins were separated by 8-15% SDS-PAGE and transferred onto polyvinylidene fluoride (PVDF) membranes. Unspecific binding sites on the PVDF membranes were blocked with 5% non-fat milk in TEST (20 mM Tris-HCl, pH 7.6, 137 mM NaCl, 1% Tween-20). […] Images were captured by Luminescence/Fluorescence Imaging System Odyssey CLx Imager (LI-COR).

Experiment [2] deals with Rb phosphorylation at S780 in CCNE1-amplified cell lines (OVCAR3 and COV318). As to the kind of experiment: Western blot of Rb phosphorylation at S780, CCNE1-amplified cell lines. It counts as cell-based, human. The following applies: OVCAR3 and COV318, various doses, 1 or 15 hours; listed as Palbociclib. The protocol: as §1, §2
Experiment [3] relates to Rb phosphorylated on serine 780 in CCNE1 amplified COV318 cells. As to the kind of experiment: CDK2 pRb (S780) HTRF cellular assay. It counts as cell-based. As to conditions: Homo sapiens, read-out: IC50 in p-RB S780 HTRF cellular assay.
Experiment [4] deals with CCNE1-amplified cell lines (COV318 and OVCAR3). In words: Cell cycle analysis by FACS, CCNE1-amplified cell lines. It is filed as cell-based, human. As to conditions: for inhibition of proliferation: CCNE1-amplified OVCAR3 cells, 16 hours, increasing concentrations, vs DMSO. The protocol: (§3) The effect of CDK4/6-inhibition in CCNE1-amplified versus CCNE1-non-amplified cell lines was evaluated.
(§4) A similar experiment was performed in a larger set of CCNE1-amplified cell lines (COV318 and OVCAR3) and CCNE1-non-amplified cell lines (COV504, OV56, and Igrov1) (FIG. 6).
(§5) Bulk DNA was stained with DAPI. Compound-treated and DMSO treated control cells were acquired with CytoFlex (Beckman Coulter) and were analyzed using the FlowJo software. For cell cycle analysis of cells with siRNA knockdown, 72 hours after siRNA transfection, cells exposed to 10 μM EdU for 3 hours before detection of Click-iT Alexa Fluor® 647 azide kit.
Background: Flow cytometry measures light scatter and fluorescence of single cells or particles in a stream.

For experiment [5], the system named is CCNE1-non-amplified cell lines (COV504, OV56, and Igrov1). In words: Cell cycle analysis by FACS, CCNE1-non-amplified cell lines. It counts as cell-based, human. As to conditions: for inhibition of proliferation: CCNE1-non-amplified COV504 cells, 16 hours, increasing concentrations, vs DMSO; for percentage of cells at the S phase: COV504, OV56, Igrov1, 16 hours after treatment, compared to DMSO. Here is the method: as §3, §4, §5

The structures appear in SMILES notation.

`CC(=O)c1c(C)c2cnc(Nc3ccc(N4CCNCC4)cn3)nc2n(C2CCCC2)c1=O` [palbociclib]: the “Rb phosphorylation at S780” value in experiment [1] is “blocked Rb phosphorylation at S780”; in experiment [1] (listed as Palbociclib), “blocks RB phosphorylation at S780”; in experiment [2], “not in amplified ovarian cells”. Also, the IC50 (usually the point on the concentration scale where inhibition reaches its midpoint) in experiment [3] is > 3000 nM. Besides, the inhibition of proliferation result in experiment [4] is recorded as “not in CCNE1-amplified cells”; in experiment [4] (listed as Palbociclib), “not in amplified cell lines”; in experiment [5], “dose-dependent inhibition of the proliferation”; in experiment [5] (listed as Palbociclib), “dose-dependent inhibition of proliferation”. Moreover, the “percentage of cells at the S phase” value in experiment [4] (COV318 and OVCAR3, 16 hours after treatment, compared to DMSO) was “not significantly different”; in experiment [5], “decreased in CCNE1-non-amplified cell lines in a dose-dependent fashion”; in experiment [5] (listed as Palbociclib), “selectively inhibits proliferation”.
